According to ChEMBL document CHEMBL5352465, “Small molecules containing chalcogen elements (S, Se, Te) as new warhead to fight neglected tropical diseases” (Eur J Med Chem, 2023):

What was measured:
Leishmania infantum [1] = experiment: Antileishmanial activity against Leishmania infantum promastigotes assessed as reduction in cell viability incubated for 24 hrs by propidium iodide staining based flow cytometry assay; assay type: functional, organism-based
Leishmania major = experiment: Antileishmanial activity against Leishmania major promastigote assessed as inhibition of parasite growth; assay type: functional, organism-based
Leishmania amazonensis = experiment: Antileishmanial activity against Leishmania amazonensis promastigotes assessed as inhibition of parasite growth; assay type: functional, organism-based
[2] = molecular target: Cruzipain (Trypanosoma cruzi) (UniProt P25779); experiment: Inhibition of Trypanosoma cruzi recombinant Cruzaine using Z-FR-AMC as substrate preincubated for 10 mins followed by substrate addition by fluorimeter analysis
Cruzipain (Trypanosoma cruzi), sequence (P25779 123-467 limits assumed): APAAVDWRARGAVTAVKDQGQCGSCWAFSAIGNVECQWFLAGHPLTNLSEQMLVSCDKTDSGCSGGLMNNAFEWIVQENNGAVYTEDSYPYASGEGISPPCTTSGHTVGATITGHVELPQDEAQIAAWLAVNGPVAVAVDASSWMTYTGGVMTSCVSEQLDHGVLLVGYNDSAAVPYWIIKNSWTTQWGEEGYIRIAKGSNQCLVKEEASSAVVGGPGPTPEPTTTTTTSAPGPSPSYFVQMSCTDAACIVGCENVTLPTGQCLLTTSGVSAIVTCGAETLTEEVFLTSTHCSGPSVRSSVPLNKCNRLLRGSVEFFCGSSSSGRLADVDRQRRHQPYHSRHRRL

Leishmania panamensis = experiment: Antileishmanial activity against Leishmania panamensis MHOM/CO/87/UA140-EpiR-GFP strain amastigotes assessed as inhibition of parasite growth incubated for 72 hrs by flow cytometric analysis; assay type: functional, organism-based
[3] = Selectivity index, ratio of LC50 for human U-937 cells to ratio of IC50 for antileishmanial activity against Leishmania panamensis MHOM/CO/87/UA140-EpiR-GFP strain promastigotes; assay type: toxicity; conditions: read-out: Ratio LC50/IC50
Trypanosoma cruzi [4] = experiment: Antitrypanosomal activity against bloodstream Trypanosoma cruzi NINOA strain trypomastigotes assessed as parasite growth inhibition incubated for 24 hrs by microscopic analysis; assay type: functional
[5] = Selectivity index, ratio of CC50 for mouse J774.A1 cells to ratio of IC50 for antitrypanosomal activity against bloodstream Trypanosoma cruzi NINOA strain trypomastigotes; assay type: toxicity; conditions: read-out: Ratio CC50/IC50
[6] = Selectivity index, ratio of CC50 for mouse J774.A1 cells to ratio of IC50 for antitrypanosomal activity against bloodstream Trypanosoma cruzi INC-5 strain trypomastigotes; assay type: toxicity; conditions: read-out: Ratio CC50/IC50
Trypanosoma cruzi [7] = experiment: Antitrypanosomal activity against bloodstream Trypanosoma cruzi INC-5 strain trypomastigotes assessed as parasite growth inhibition incubated for 24 hrs by microscopic analysis; assay type: functional
Trypanosoma brucei [8] = experiment: Antitrypanosomal activity against bloodstream Trypanosoma brucei 427 strain assessed as parasite growth inhibition measured after 24 hrs by propidium iodide staining based flow cytometer method; assay type: functional, organism-based; conditions: Trypanosoma brucei, 427, 24 h
Trypanosoma cruzi [9] = experiment: Antitrypanosomal activity against bloodstream Trypanosoma cruzi Y strain trypomastigotes assessed as parasite growth inhibition incubated for 24 hrs by light microscopic analysis; assay type: functional, organism-based
[10] = Selectivity index, ratio of CC50 for rat L6 cells to IC50 for antitrypanosomal activity against bloodstream Trypanosoma brucei; assay type: toxicity; conditions: read-out: Ratio CC50/IC50
[11] = Selectivity index, ratio of CC50 for rat L6 cells to IC50 for antitrypanosomal activity against bloodstream Trypanosoma brucei gambiense; assay type: toxicity; conditions: read-out: Ratio CC50/IC50
[12] = system: Trypanosoma brucei gambiense; experiment: Antitrypanosomal activity against bloodstream Trypanosoma brucei gambiense assessed as parasite growth inhibition measured after 72 hrs by resazurin staining based analysis; assay type: functional, organism-based
Trypanosoma brucei [13] = experiment: Antitrypanosomal activity against bloodstream Trypanosoma brucei assessed as parasite growth inhibition measured after 72 hrs by resazurin staining based analysis; assay type: functional, organism-based
Trypanosoma cruzi [14] = experiment: Antitrypanosomal activity against Trypanosoma cruzi epimastigote Dm28c strain assessed as parasite growth inhibition incubated for 96 hrs by Neubauer chamber based light microscopic analysis; assay type: functional, organism-based
Leishmania tropica = experiment: Antileishmanial activity against Leishmania tropica promastigotes assessed as inhibition of parasite growth; assay type: functional, organism-based
[15] = Selectivity index, ratio of CC50 for human WI26VA4 cells to ratio of IC50 for antileishmanial activity against Leishmania infantum MHOM/BR/74/PP75 promastigote; assay type: toxicity; conditions: read-out: Ratio CC50/IC50
Leishmania infantum [16] = experiment: Antileishmanial activity against Leishmania infantum MHOM/BR/74/PP75 strain promastigotes assessed as reduction in cell viability incubated for 48 hrs by MTT assay; assay type: functional, organism-based; conditions: MHOM/BR/74/PP75, 48 h
[17] = Selectivity index, ratio of CC50 for human WI26VA4 cells to ratio of IC50 for antileishmanial activity against Leishmania braziliensis MHOM/BR/75/M2903 promastigote; assay type: toxicity; conditions: read-out: Ratio CC50/IC50
Leishmania braziliensis = experiment: Antileishmanial activity against Leishmania braziliensis MHOM/BR/75/M2903 strain promastigotes assessed as reduction in cell viability incubated for 48 hrs by MTT assay; assay type: functional, organism-based; conditions: MHOM/BR/75/M2903, 48 h
Leishmania infantum [18] = experiment: Antileishmanial activity against Leishmania infantum amastigotes assessed as inhibition of parasite growth; assay type: functional, organism-based
Leishmania infantum [19] = experiment: Antileishmanial activity against Leishmania infantum promastigotes assessed as inhibition of parasite growth; assay type: functional, organism-based
[20] = Selectivity index, ratio of CC50 for human CC cells to ratio of IC50 for antileishmanial activity against Leishmania major promastigote; assay type: toxicity; conditions: read-out: Ratio CC50/IC50
Leishmania aethiopica = experiment: Antileishmanial activity against Leishmania aethiopica amastigotes assessed as inhibition of parasite growth measured after 24 hrs by Alamar blue based analysis; assay type: functional, organism-based
Leishmania donovani = experiment: Antileishmanial activity against Leishmania donovani promastigotes assessed as inhibition of parasite growth measured after 24 hrs by Alamar blue based analysis; assay type: functional, organism-based
[21] = Selectivity index, ratio of CC50 for cytotoxicity against Swiss mouse peritoneal macrophages to IC50 for antitrypanosomal activity against bloodstream Trypanosoma cruzi Y strain trypomastigotes; assay type: toxicity; conditions: read-out: Ratio CC50/IC50
Trypanosoma cruzi [22] = experiment: Antitrypanosomal activity against bloodstream Trypanosoma cruzi Y strain trypomastigotes assessed as parasite growth inhibition incubated for 24 hrs by Neubauer chamber based light microscopic analysis; assay type: functional, organism-based
Leishmania infantum [23] = experiment: Antileishmanial activity against Leishmania infantum promastigotes assessed as reduction in cell viability; assay type: functional, organism-based
Trypanosoma cruzi [24] = experiment: Antitrypanosomal activity against Trypanosoma cruzi amastigote assessed as parasite growth inhibition; assay type: functional, organism-based
[25] = Selectivity index, ratio of CC50 for cytotoxicity against mouse RAW264.7 cells to IC50 for antitrypanosomal activity against Trypanosoma cruzi epimastigote; assay type: toxicity, cell-based; conditions: read-out: Ratio CC50/IC50
[26] = Selectivity index, ratio of CC50 for cytotoxicity against mouse RAW264.7 cells to IC50 for antitrypanosomal activity against Trypanosoma cruzi amastigote; assay type: toxicity, cell-based; conditions: read-out: Ratio CC50/IC50
Trypanosoma cruzi [27] = experiment: Antitrypanosomal activity against Trypanosoma cruzi epimastigote Dm28c strain assessed as parasite growth inhibition; assay type: functional, organism-based

`CCc1cc(-c2csc(-c3ccc(-n4ccnc4CNCCN)cc3OCCN3CCNC3=O)n2)cc2ccccc12` showed an IC50 (Leishmania infantum [1]) of 5.1 µM.
With `O=C1c2cccc3cccc(c23)C(=O)C1CCCCCCN=C=[Se]` the IC50 (Leishmania major) was 0.03 µM and the IC50 (Leishmania amazonensis) was 0.2 µM.
`CN(C)c1ccc(/C=N/NC(N)=S)cc1` gave an inhibition [2] of 70%.
With `COc1cc(C2=NN(c3ccccc3)C(c3sc(N(CCCl)CCCl)nc3Cl)C2)cc(OC)c1OC` (configuration not stated) the IC50 (Leishmania panamensis) was 13.9 µM and the selectivity ratio [3] was 1.48.
In the case of `COc1ccc(CSc2nc3ccccc3s2)cc1`, the LC50 (Trypanosoma cruzi [4]) is reported as 308 µM, the selectivity ratio [5] is reported as greater than 2.92 and the selectivity ratio [6] is reported as greater than 3.26. It also gave an LC50 (Trypanosoma cruzi [7]) of 276 µM.
Compound `Fc1cccc(F)c1CSc1nc2ccccc2s1` has an LC50 (Trypanosoma cruzi [4]) of 110 µM, a selectivity ratio [5] of 4.48 and a selectivity ratio [6] of 1.91. For the same compound, the LC50 (Trypanosoma cruzi [7]) was 260 µM.
In the case of `CC(=O)OCC1O[C@@H](OC(C)=O)[C@H]([Se][Se]C2O[C@H](COC(C)=O)[C@H](OC(C)=O)[C@H](OC(C)=O)[C@H]2OC(C)=O)[C@@H](OC(C)=O)[C@H]1OC(C)=O` (some centres not stated), the IC50 (Trypanosoma brucei [8]) is reported as 3.3 µM.
`c1ccc(CSc2nc3ccccc3s2)cc1` showed an LC50 (Trypanosoma cruzi [4]) of 123 µM, a selectivity ratio [5] greater than 7.29 and a selectivity ratio [6] greater than 2.68. The LC50 (Trypanosoma cruzi [7]) was 336 µM.
For `Oc1ccc(-c2nnc(-c3ccc4ncccc4c3)s2)c(O)c1`, the IC50 (Leishmania major) was 0.7 µM.
Compound `CC1(C)OC2=C(CC1[Se]c1cccs1)C(=O)C(=O)c1ccccc12` (configuration not stated) has an IC50 (Trypanosoma cruzi [9]) of 63.3 µM.
In the case of `CCOC(=O)c1ccc(N/C=C2/SC(=O)N(C(Cc3ccccc3)C(=O)OCC)C2=S)cc1` (configuration not stated), the selectivity ratio [10] is reported as 409, the selectivity ratio [11] is reported as 1400 and the IC50 [12] is reported as 0.027 µM. It also gave an IC50 (Trypanosoma brucei [13]) of 0.091 µM.
Compound `C/C(=N\NC(N)=S)c1ccc(Cl)c(Cl)c1Cl` has an IC50 (Trypanosoma cruzi [14]) of 29 µM.
In the case of `O=C(Nc1nc2cnc(Cl)nc2s1)c1ccc(Cl)cc1Cl`, the IC50 (Leishmania tropica) is reported as 0.5 µM.
Compound `C/C(=N\NC(N)=S)c1ccc(Cl)cc1Cl` has an IC50 (Trypanosoma cruzi [14]) of 24.8 µM.
Work on `O=C1NC(=O)/C(=C/c2cc(Cl)cc(Br)c2O)S1` yielded a selectivity ratio [15] of 0.74, an IC50 (Leishmania infantum [16]) of 35.9 µM and a selectivity ratio [17] of 0.55. It also gave an IC50 (Leishmania braziliensis) of 48.2 µM.
Work on `O=C(Nc1nc2cnc(Cl)nc2s1)c1ccc(Cl)cc1` yielded an IC50 (Leishmania tropica) of 7.5 µM.
`NC(=S)N/N=C(/C=C/c1ccccc1)c1ccccc1` showed an IC50 (Leishmania infantum [18]) of 6.88 µM and an IC50 (Leishmania infantum [19]) of 14.7 µM.
In the case of `COCCCNc1nnc(-c2ccc([N+](=O)[O-])s2)s1`, the selectivity ratio [20] is reported as 2.
`O=C1NC(=O)/C(=C/c2ccc(Cl)cc2Cl)S1` showed a selectivity ratio [15] of 0.82, an IC50 (Leishmania infantum [16]) of 40.9 µM and a selectivity ratio [17] of 0.76. The IC50 (Leishmania braziliensis) was 44.2 µM.
For `Cc1ccc(-c2cc(C3CC(c4cccs4)=NN3)n(-c3ccccc3)n2)cc1` (configuration not stated), the IC50 (Leishmania aethiopica) was 1.08 µM and the IC50 (Leishmania donovani) was 2.07 µM.
`O=C1C(=O)c2ccccc2C2=C1CC(C[Se]c1cccc(C(F)(F)F)c1)O2` (configuration not stated) showed an IC50 (Trypanosoma cruzi [9]) of 75.5 µM.
`Clc1ccc(CSc2nc3ccccc3s2)cc1` gave an LC50 (Trypanosoma cruzi [4]) greater than 350 µM, a selectivity ratio [6] greater than 3.42 and an LC50 (Trypanosoma cruzi [7]) of 263 µM.
With `Fc1ccc(-c2nnc(N/N=C/c3ccccn3)s2)cc1` the selectivity ratio [21] was 6 and the IC50 (Trypanosoma cruzi [22]) was 9.3 µM.
In the case of `Oc1cccc(-c2nnc(-c3ccc4ncccc4c3)s2)c1O`, the IC50 (Leishmania major) is reported as 0.04 µM.
Compound `C/C(=N\Nc1nc(-c2ccc(Cl)c(Cl)c2)c(C)s1)c1ccccn1` has an IC50 (Leishmania infantum [23]) of 2.73 µM.
Compound `NS(=O)(=O)c1nnc(NC(=O)Cc2ccc(Cl)cc2)s1` has an IC50 (Trypanosoma cruzi [24]) of 3.47 µM, a selectivity ratio [25] of 1 and a selectivity ratio [26] of 1. It also gave an IC50 (Trypanosoma cruzi [27]) of 6.24 µM.
`CC1=CC[C@@H](C(C)(C)NC(=S)N/N=C/c2ccc([N+](=O)[O-])cc2)CC1` showed an IC50 (Leishmania amazonensis) of 11.2 µM.
For `O=[N+]([O-])c1ccc(-c2nnc(NCCCO)s2)s1`, the selectivity ratio [20] was 14.
`CCc1cc(-c2csc(-c3ccc(-n4ccnc4CNCCN)cc3OCCN3CCNC3=O)n2)ccc1-c1ccccc1` gave an IC50 (Leishmania infantum [1]) of 8.6 µM.
